Measured values from ChEMBL document CHEMBL1201862, “PubChem BioAssay data set” (2004).
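Growth conditions: 96-well plates. Treatment: test compound, 48 hours, 5 concentrations. Analysis: linear interpolation between bracketing concentrations; unreached endpoints set to highest concentration. GI50: concentration for 50% inhibition of growth.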 Active and inactive are the calls of the source. No stated cut-off is given here; in the data, active = GI50 up to about 1.1 µM and inactive = higher.

Key:
Assay in all cases: NCI tumour cell line growth inhibition, 48 h
T47D = tested on: T47D
K562 = tested on: K562
OVCAR-8 = tested on: OVCAR-8
HOP-62 = tested on: HOP-62
NCI-H460 = tested on: NCI-H460
SK-MEL-28 = tested on: SK-MEL-28
RPMI-8226 = tested on: RPMI-8226
TK-10 = tested on: TK-10
A498 = tested on: A498
COLO 205 = tested on: COLO 205
CAKI-1 = tested on: CAKI-1
MCF7 = tested on: MCF7
HCT-15 = tested on: HCT-15
786-0 = tested on: 786-0
NCI-H226 = tested on: NCI-H226
UACC-257 = tested on: UACC-257
SK-MEL-2 = tested on: SK-MEL-2
MOLT-4 = tested on: MOLT-4
PC-3 = tested on: PC-3
OVCAR-3 = tested on: OVCAR-3

Row | SMILES | GI50 (T47D) | GI50 (K562) | GI50 (OVCAR-8) | GI50 (HOP-62) | GI50 (NCI-H460) | GI50 (SK-MEL-28) | GI50 (RPMI-8226) | GI50 (TK-10) | GI50 (A498) | GI50 (COLO 205) | GI50 (CAKI-1) | GI50 (MCF7) | GI50 (HCT-15) [µM] | GI50 (786-0) | GI50 (NCI-H226) | GI50 (UACC-257) | GI50 (SK-MEL-2) | GI50 (MOLT-4) | GI50 (PC-3) | GI50 (OVCAR-3)
1 | O=[N+]([O-])c1cc(Cc2cc([N+](=O)[O-])c3cccnc3c2O)c(O)c2ncccc12 | 4.48 µM (inactive) | 4.16 µM (inactive) | 3.6 µM (inactive) | 9.1 µM (inactive) | 2.18 µM (inactive) | 13.6 µM (inactive) | 4.57 µM (inactive) | 12.4 µM (inactive) | 14.2 µM (inactive) | 19.7 µM (inactive) | 8.77 µM (inactive) | 4.4 µM (inactive) | 4.23 | 5.82 µM (inactive) | 16.6 µM (inactive) | 2.65 µM (inactive) | 11.1 µM (inactive) | 2.12 µM (inactive) | 4.41 µM (inactive) | 2.38 µM (inactive)
2 | CCOC(=O)c1cc([N+](=O)[O-])cc([N+](=O)[O-])c1Sc1[nH]cnc2ncnc1-2 | 1.2 µM (inactive) | 0.661 µM (active) | 1.93 µM (inactive) | 3.54 µM (inactive) | 8.81 µM (inactive) | 3.13 µM (inactive) | 1.65 µM (inactive) | 4.5 µM (inactive) | 12.2 µM (inactive) | 2.17 µM (inactive) | 1.85 µM (inactive) | 1.61 µM (inactive) | 4.33 | 0.824 µM (active) | 24.1 µM (inactive) | 6.21 µM (inactive) | 2.93 µM (inactive) | 1.24 µM (inactive) | 3.73 µM (inactive) | 1.12 µM (active)
3 | Cc1cc(NS(=O)(=O)c2ccc(NC(=O)c3ccc4nc5ccccc5c(Nc5ccc(S(N)(=O)=O)cc5)c4c3)cc2)no1 | 24.2 µM (inactive) | 19.8 µM (inactive) | 24.6 µM (inactive) | 33.6 µM (inactive) | 20.7 µM (inactive) | 21 µM (inactive) | 24.7 µM (inactive) | 30.5 µM (inactive) | 55.5 µM (inactive) | 20.6 µM (inactive) | 38.1 µM (inactive) | 19.9 µM (inactive) | 19.2 | 17.1 µM (inactive) | > 100 µM (inactive) | 22 µM (inactive) | 23.9 µM (inactive) | 22.3 µM (inactive) | 32.3 µM (inactive) | 27.5 µM (inactive)
4 | O=C(O)CC1NC(/C(=C/c2ccccc2)NC(=O)c2ccccc2)OC1=O (centres undefined) | > 100 µM (inactive) | 21.3 µM (inactive) | 25.9 µM (inactive) | 18.9 µM (inactive) | 22.2 µM (inactive) | 24.3 µM (inactive) | 20.2 µM (inactive) | > 100 µM (inactive) | > 100 µM (inactive) | 19.8 µM (inactive) | > 100 µM (inactive) | 47.2 µM (inactive) | 31 | 29.4 µM (inactive) | 21.8 µM (inactive) | > 100 µM (inactive) | 27.6 µM (inactive) | 17.7 µM (inactive) | > 100 µM (inactive) | 20.6 µM (inactive)
5 | NS(=O)(=O)c1nnc(NS(=O)(=O)c2ccccc2[N+](=O)[O-])s1 | > 100 µM (inactive) | > 100 µM (inactive) |  | > 100 µM (inactive) | > 100 µM (inactive) | > 100 µM (inactive) | > 100 µM (inactive) | > 100 µM (inactive) | > 100 µM (inactive) | > 100 µM (inactive) | > 100 µM (inactive) | > 100 µM (inactive) | > 100 | > 100 µM (inactive) | > 100 µM (inactive) |  | > 100 µM (inactive) | > 100 µM (inactive) | > 100 µM (inactive) | > 100 µM (inactive)
6 | Nc1c(/C=C/c2cc3cc(C4=NCCN4)ccc3o2)[nH]c2cc(C3=NCCN3)ccc12 | 46.5 µM (inactive) | 41.3 µM (inactive) | 38.9 µM (inactive) | 34.2 µM (inactive) | 32.7 µM (inactive) | 32 µM (inactive) | 39 µM (inactive) | 31.6 µM (inactive) | > 100 µM (inactive) | 41.3 µM (inactive) | 38.3 µM (inactive) | 40.7 µM (inactive) | 41.6 | 37.3 µM (inactive) | > 100 µM (inactive) | 46.7 µM (inactive) | > 100 µM (inactive) | 28.9 µM (inactive) | 34.6 µM (inactive) | 35.6 µM (inactive)
7 | CC(C)CCC[C@@H](C)[C@H]1CC[C@H]2C3=C[C@H](OS(=O)(=O)O)[C@@]4(O)C[C@@H](O)CC[C@]4(C)[C@@]3(O)CC[C@]12C | 83.6 µM (inactive) | 45.6 µM (inactive) | > 100 µM (inactive) | > 100 µM (inactive) | > 100 µM (inactive) | > 100 µM (inactive) | > 100 µM (inactive) | > 100 µM (inactive) | > 100 µM (inactive) | > 100 µM (inactive) | > 100 µM (inactive) | > 100 µM (inactive) | > 100 | > 100 µM (inactive) | 60 µM (inactive) | > 100 µM (inactive) | > 100 µM (inactive) | 42.7 µM (inactive) | > 100 µM (inactive) | > 100 µM (inactive)
8 | CC(C)(C)C1CCC2c3c([nH]c4ccccc34)C3C(=O)N(c4cccc(Cl)c4)C(=O)C3C2C1 (centres undefined) | 9.16 µM (inactive) | 2.44 µM (inactive) | 17.7 µM (inactive) | 0.518 µM (active) | 4.63 µM (inactive) | 14.2 µM (inactive) | 9.27 µM (inactive) | 16.8 µM (inactive) | 22.6 µM (inactive) | 12 µM (inactive) | 17.8 µM (inactive) | 2.06 µM (inactive) | 14.5 | 8.28 µM (inactive) | 19 µM (inactive) | 9.33 µM (inactive) | 17 µM (inactive) | 1.85 µM (inactive) | 7.1 µM (inactive) | 15.1 µM (inactive)
9 | c1cc(-c2ncc(-c3ccc4c(c3)CCCO4)o2)ccn1 | 12.5 µM (inactive) | 1.85 µM (inactive) | 16.7 µM (inactive) | 18.1 µM (inactive) |  | 11.6 µM (inactive) | 8.47 µM (inactive) | 7.43 µM (inactive) | 10.6 µM (inactive) | 5.42 µM (inactive) | 20 µM (inactive) | 12.8 µM (inactive) | 6.24 | 26.6 µM (inactive) | 21 µM (inactive) | 13.2 µM (inactive) | 10.8 µM (inactive) | 3.06 µM (inactive) | 11.5 µM (inactive) | 11.4 µM (inactive)
10 | O=C(Nc1nccs1)NS(=O)(=O)n1cnc2ccccc21 | > 100 µM (inactive) |  | > 100 µM (inactive) | > 100 µM (inactive) | > 100 µM (inactive) | > 100 µM (inactive) | > 100 µM (inactive) | > 100 µM (inactive) | > 100 µM (inactive) | > 100 µM (inactive) | > 100 µM (inactive) | > 100 µM (inactive) | > 100 | > 100 µM (inactive) | > 100 µM (inactive) | > 100 µM (inactive) | > 100 µM (inactive) | > 100 µM (inactive) | > 100 µM (inactive) | > 100 µM (inactive)
11 | COc1c2c(cc3c1C1(O)Cc4ccc5c(c4C[N+]1(C)CC3)OCO5)OCO2 (centres undefined) | > 100 µM (inactive) | 37.3 µM (inactive) | > 100 µM (inactive) | > 100 µM (inactive) | 88.1 µM (inactive) | > 100 µM (inactive) | 85.3 µM (inactive) | > 100 µM (inactive) | > 100 µM (inactive) | 58.5 µM (inactive) | > 100 µM (inactive) | > 100 µM (inactive) | > 100 | > 100 µM (inactive) | > 100 µM (inactive) | > 100 µM (inactive) | > 100 µM (inactive) | 50.8 µM (inactive) | 73.5 µM (inactive) | > 100 µM (inactive)
12 | COC(=O)C1(C)CCCC2(C)C3CCC4CC3(C=C4CO)CCC12 (centres undefined) | 34.4 µM (inactive) |  | 36.9 µM (inactive) | 75 µM (inactive) |  | 66.7 µM (inactive) | 24.9 µM (inactive) | 91.6 µM (inactive) | 87.9 µM (inactive) | 74.8 µM (inactive) | 43.8 µM (inactive) | 22.8 µM (inactive) | 17.4 | 43.4 µM (inactive) | 53.2 µM (inactive) | 41.9 µM (inactive) | 82.4 µM (inactive) | 27.8 µM (inactive) | 33.1 µM (inactive) | 42.1 µM (inactive)
13 | CCOC(=O)CCCN | > 100 µM (inactive) | > 100 µM (inactive) | > 100 µM (inactive) | > 100 µM (inactive) | > 100 µM (inactive) | > 100 µM (inactive) | > 100 µM (inactive) | > 100 µM (inactive) | > 100 µM (inactive) | > 100 µM (inactive) | > 100 µM (inactive) | > 100 µM (inactive) | > 100 | > 100 µM (inactive) | > 100 µM (inactive) | > 100 µM (inactive) | > 100 µM (inactive) | > 100 µM (inactive) | > 100 µM (inactive) | > 100 µM (inactive)
14 | Nc1ccc2c(=O)cc(-c3ccc(Br)s3)[nH]c2n1 | 4.16 µM (inactive) | 0.522 µM (active) | 3.52 µM (inactive) | 4.86 µM (inactive) | 4.16 µM (inactive) | 3.08 µM (inactive) | 1.89 µM (inactive) | 11.7 µM (inactive) | 3.21 µM (inactive) | 2.5 µM (inactive) | 4.46 µM (inactive) | 2.15 µM (inactive) | 2.26 | 4.02 µM (inactive) | 2.15 µM (inactive) | > 27.7 µM (inactive) | > 100 µM (inactive) | 2.33 µM (inactive) | 2.74 µM (inactive) | 3.18 µM (inactive)
